# Source: the OligoGym collection
# Oligonucleotides are written 5' to 3', each unit as a sugar letter and its base; * is a phosphorothioate linkage, no mark a phosphodiester; rarer units and linkages stand in square brackets, end groups in braces. Plain capitals give the bases only. d = 2'-deoxy (DNA); r = 2'-OH (RNA)
# Target: P2rx2 (rat)
# Assay: reporter assay of Huesken 2005
# Conditions: siRNA
# Also: test concentration or dose not given here.
row,Substance,normalised inhibition (eCFP-eYFP dual reporter) [%]
1,sense rUrUrGrCrArArGrCrCrArGrArArGrArGrUrGrAdTdT / antisense rUrCrArCrUrCrUrUrCrUrGrGrCrUrUrGrCrArAdTdG,72.8
2,sense rUrGrGrCrUrGrUrCrCrArGrUrCrUrCrCrUrCrGdTdT / antisense rCrGrArGrGrArGrArCrUrGrGrArCrArGrCrCrAdGdT,67.4
3,sense rArCrArArGrArUrArArArCrGrGrCrArCrUrArCdTdT / antisense rGrUrArGrUrGrCrCrGrUrUrUrArUrCrUrUrGrUdAdA,50.6
4,sense rCrArCrUrArCrUrCrCrCrArGrGrArUrCrArGrCdTdT / antisense rGrCrUrGrArUrCrCrUrGrGrGrArGrUrArGrUrGdAdC,46.4
5,sense rGrCrCrCrGrGrUrGrGrArGrGrArUrGrGrArArCdTdT / antisense rGrUrUrCrCrArUrCrCrUrCrCrArCrCrGrGrGrCdAdC,48.4
6,sense rArCrUrCrCrCrArGrGrArUrCrArGrCrCrArCrCdTdT / antisense rGrGrUrGrGrCrUrGrArUrCrCrUrGrGrGrArGrUdAdG,44.7
7,sense rArGrGrCrUrGrGrGrUrUrUrCrArUrUrGrUrUrGdTdT / antisense rCrArArCrArArUrGrArArArCrCrCrArGrCrCrUdGdA,64.9
8,sense rUrCrGrArUrGrUrUrArUrCrGrUrGrCrArUrGrGdTdT / antisense rCrCrArUrGrCrArCrGrArUrArArCrArUrCrGrAdTdT,57.4
9,sense rCrCrGrGrArGrArGrCrUrCrCrArUrCrArUrCrAdTdT / antisense rUrGrArUrGrArUrGrGrArGrCrUrCrUrCrCrGrGdTdC,54.2
10,sense rGrGrUrGrGrUrGrGrArCrArCrArCrUrUrGrGrCdTdT / antisense rGrCrCrArArGrUrGrUrGrUrCrCrArCrCrArCrCdTdG,52.2
11,sense rCrUrCrCrArUrCrGrGrGrGrUrGrGrGrCrUrCrCdTdT / antisense rGrGrArGrCrCrCrArCrCrCrCrGrArUrGrGrArGdGdT,38.5
12,sense rArArArGrUrCrArArGrGrGrGrArUrCrArCrCrAdTdT / antisense rUrGrGrUrGrArUrCrCrCrCrUrUrGrArCrUrUrUdGdG,66.2
13,sense rGrGrGrArArArUrUrCrArGrUrCrUrCrArUrUrCdTdT / antisense rGrArArUrGrArGrArCrUrGrArArUrUrUrCrCrCdTdG,72.6
14,sense rUrGrArGrArArGrGrCrArGrGrArGrArGrArArCdTdT / antisense rGrUrUrCrUrCrUrCrCrUrGrCrCrUrUrCrUrCrAdAdC,32.3
15,sense rCrArCrCrArCrUrCrGrArArCrUrCrUrCrArUrCdTdT / antisense rGrArUrGrArGrArGrUrUrCrGrArGrUrGrGrUrGdGdT,64.7
16,sense rCrCrArArGrArCrCrUrGrCrGrArGrGrUrGrUrCdTdT / antisense rGrArCrArCrCrUrCrGrCrArGrGrUrCrUrUrGrGdAdG,68.7
17,sense rArArCrUrGrUrGrArCrCrUrGrGrArCrUrUrGrUdTdT / antisense rArCrArArGrUrCrCrArGrGrUrCrArCrArGrUrUdCdC,38.6
18,sense rUrCrGrUrGrCrArGrArArArArGrCrUrArCrCrAdTdT / antisense rUrGrGrUrArGrCrUrUrUrUrCrUrGrCrArCrGrAdTdG,74.2
19,sense rArCrArGrCrUrCrUrArCrCrUrGrCrCrArUrUrCdTdT / antisense rGrArArUrGrGrCrArGrGrUrArGrArGrCrUrGrUdGdA,42.3
20,sense rCrArGrCrArUrArUrGrGrGrArCrArArArGrArCdTdT / antisense rGrUrCrUrUrUrGrUrCrCrCrArUrArUrGrCrUrGdGdC,51.7
21,sense rUrCrUrCrArUrCrCrUrGrCrUrUrUrArCrUrUrCdTdT / antisense rGrArArGrUrArArArGrCrArGrGrArUrGrArGrAdAdG,61.3
22,sense rCrGrUrGrCrArGrArArArArGrCrUrArCrCrArGdTdT / antisense rCrUrGrGrUrArGrCrUrUrUrUrCrUrGrCrArCrGdAdT,80.5
23,sense rCrArUrUrGrUrUrGrArGrArArGrGrCrArGrGrAdTdT / antisense rUrCrCrUrGrCrCrUrUrCrUrCrArArCrArArUrGdAdA,61.4

row,Substance,normalised inhibition (eCFP-eYFP dual reporter) [%]
1,sense rGrCrArUrCrArUrCrArCrCrArGrGrArUrCrGrAdTdT / antisense rUrCrGrArUrCrCrUrGrGrUrGrArUrGrArUrGrCdTdG,78.5
2,sense rGrCrCrArCrCrCrArGrCrCrCrUrCrCrArUrCrAdTdT / antisense rUrGrArUrGrGrArGrGrGrCrUrGrGrGrUrGrGrCdTdG,60.8
3,sense rArGrGrArUrCrGrArGrGrUrUrArCrCrCrCrUrUdTdT / antisense rArArGrGrGrGrUrArArCrCrUrCrGrArUrCrCrUdGdG,76.8
4,sense rArGrUrCrArUrCrArUrCrArArCrUrGrGrArArCdTdT / antisense rGrUrUrCrCrArGrUrUrGrArUrGrArUrGrArCrUdCdC,33.7
5,sense rArCrUrArCrCrArCrCrArCrUrCrGrArArCrUrCdTdT / antisense rGrArGrUrUrCrGrArGrUrGrGrUrGrGrUrArGrUdGdC,43.6
6,sense rArArGrCrCrUrArUrGrGrGrArUrUrCrGrArArUdTdT / antisense rArUrUrCrGrArArUrCrCrCrArUrArGrGrCrUrUdTdG,76
7,sense rGrArCrArGrCrUrGrGrArCrArUrGrCrArArGrGdTdT / antisense rCrCrUrUrGrCrArUrGrUrCrCrArGrCrUrGrUrCdCdG,35.3
8,sense rCrArUrCrArUrCrArCrCrArArArGrUrCrArArGdTdT / antisense rCrUrUrGrArCrUrUrUrGrGrUrGrArUrGrArUrGdGdA,71.5
9,sense rGrGrUrGrCrGrGrArArUrCrGrGrCrGrCrCrUrGdTdT / antisense rCrArGrGrCrGrCrCrGrArUrUrCrCrGrCrArCrCdAdC,69.3
10,sense rUrArCrCrUrCrArArGrCrArUrUrGrCrArCrArUdTdT / antisense rArUrGrUrGrCrArArUrGrCrUrUrGrArGrGrUrAdGdT,72.3
11,sense rCrUrArCrArArCrUrUrCrArGrGrUrUrUrGrCrCdTdT / antisense rGrGrCrArArArCrCrUrGrArArGrUrUrGrUrArGdCdC,57
12,sense rGrArUrCrArGrGrArCrUrCrUrGrArCrCrCrArUdTdT / antisense rArUrGrGrGrUrCrArGrArGrUrCrCrUrGrArUrCdAdA,81.3
13,sense rArGrCrArUrArUrGrGrGrArCrArArArGrArCrCdTdT / antisense rGrGrUrCrUrUrUrGrUrCrCrCrArUrArUrGrCrUdGdG,53.1
14,sense rUrCrArUrCrArArGrArArCrArGrCrArUrCrCrAdTdT / antisense rUrGrGrArUrGrCrUrGrUrUrCrUrUrGrArUrGrAdGdG,53.7
15,sense rGrGrGrArUrUrCrGrCrArCrArGrGrGrCrArCrUdTdT / antisense rArGrUrGrCrCrCrUrGrUrGrCrGrArArUrCrCrCdAdT,66
16,sense rGrGrArGrArGrArArCrUrUrCrArCrArGrArArCdTdT / antisense rGrUrUrCrUrGrUrGrArArGrUrUrCrUrCrUrCrCdTdG,61.7
17,sense rCrUrUrGrGrCrCrArGrCrArUrArUrGrGrGrArCdTdT / antisense rGrUrCrCrCrArUrArUrGrCrUrGrGrCrCrArArGdTdG,52
18,sense rArCrGrUrCrUrUrCrArUrCrGrUrGrCrArGrArAdTdT / antisense rUrUrCrUrGrCrArCrGrArUrGrArArGrArCrGrUdAdC,85.2
19,sense rGrCrCrArUrArArGrArArGrUrUrCrGrArCrArAdTdT / antisense rUrUrGrUrCrGrArArCrUrUrCrUrUrArUrGrGrCdTdG,88.6
20,sense rArGrUrCrArCrUrArCrUrCrCrCrArGrGrArUrCdTdT / antisense rGrArUrCrCrUrGrGrGrArGrUrArGrUrGrArCrUdAdG,64.6
21,sense rGrUrGrUrCrArUrUrGrGrArGrUrCrArUrCrArUdTdT / antisense rArUrGrArUrGrArCrUrCrCrArArUrGrArCrArCdCdG,59
22,sense rArCrCrArGrGrArCrArGrCrGrArGrArCrCrGrGdTdT / antisense rCrCrGrGrUrCrUrCrGrCrUrGrUrCrCrUrGrGrUdAdG,49.5
23,sense rArArArUrUrUrCrArCrCrArUrCrCrUrCrArUrCdTdT / antisense rGrArUrGrArGrGrArUrGrGrUrGrArArArUrUrUdGdG,23.6

# Target: UBE2T
# Assay: reporter assay of Huesken 2005
# Conditions: siRNA
row,Substance,normalised inhibition (eCFP-eYFP dual reporter) [%]
1,sense rArGrGrUrGrCrUrUrGrGrArGrArCrCrArUrCrCdTdT / antisense rGrGrArUrGrGrUrCrUrCrCrArArGrCrArCrCrUdTdT,65.6
2,sense rGrArUrUrUrGrUrCrUrGrGrArUrGrUrUrCrUrCdTdT / antisense rGrArGrArArCrArUrCrCrArGrArCrArArArUrCdCdT,75
3,sense rUrGrUrUrCrUrCrArArArUrUrGrCrCrArCrCrAdTdT / antisense rUrGrGrUrGrGrCrArArUrUrUrGrArGrArArCrAdTdC,53.3
4,sense rUrUrGrArArCrCrUrCrCrUrCrArGrArUrCrCrGdTdT / antisense rCrGrGrArUrCrUrGrArGrGrArGrGrUrUrCrArAdAdT,56.5
5,sense rArGrUrArGrGrCrArUrArGrArArArArGrArArAdTdT / antisense rUrUrUrCrUrUrUrUrCrUrArUrGrCrCrUrArCrUdAdG,102
6,sense rCrUrCrArGrArArUrUrUrArArArUrArUrArArUdTdT / antisense rArUrUrArUrArUrUrUrArArArUrUrCrUrGrArGdGdA,85.9
